Target: T1, GPR40 of human origin (Homo sapiens, UniProt O14842)
T1 construct: expressed in transfected cells
Assay: Agonist action on GPR40 of human origin (Ca2+ fluorescence in CHO cells)
Format: cell-based
Conditions: CHO cell strain stably expressing GPR40 of human origin; Ca2+ concentration fluctuation, fluorescent calcium indicator
Experimental: A CHO cell strain stably expressing GPR40 of human origin was used to determine the agonist action of a subject compound. This cell strain was seeded in a clear bottom 96 well plate at 4×10^4 cells/100 μL/well. The cell strain was cultured in a CO2 incubator overnight using a Ham's F-12 medium containing a 10% fetal bovine serum, 100 U/mL penicillin, 0.1 mg/mL streptomycin, and 400 μg/mL Geneticin. Calcium 4 Assay Kit (Molecular Devices) was used as a fluorescent calcium indicator. One mL of 77 mg/mL probenecid (Invitrogen) was added to 100 mL of a calcium indicator solution to prepare a solution (loading solution) mixed with a 20 mM HEPES-containing Hanks' balanced salt solution (HBSS) in equal proportions. 200 μL of the loading solution was added to the cells from which the culture solution was removed, and the cells were cultured in a CO2 incubator for 1 hour. The subject compound was diluted with a 20 mM HEPES-containing HBSS and was added to the cells by 50 μL, and the fluctuation of the Ca^2+ concentration was measured by an intracellular ion analyzer. The EC50 value of the subject compound was calculated using the dose-response curve of fluorescence intensity variation.

T1 sequence (O14842 whole entry): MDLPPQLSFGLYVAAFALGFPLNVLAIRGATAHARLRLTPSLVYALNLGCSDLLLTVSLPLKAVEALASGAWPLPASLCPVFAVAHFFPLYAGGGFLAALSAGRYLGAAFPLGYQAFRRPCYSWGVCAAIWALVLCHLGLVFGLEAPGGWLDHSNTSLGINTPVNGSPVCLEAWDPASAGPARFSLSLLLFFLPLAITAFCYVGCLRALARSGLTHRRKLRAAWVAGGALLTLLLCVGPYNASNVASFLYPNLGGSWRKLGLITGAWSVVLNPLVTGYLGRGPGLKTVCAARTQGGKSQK

Compound	EC50 [nM]
[O-][s+]1nc(O)cc1-c1ccc(OCc2cccc(Cl)c2)cc1 (single isomer, unassigned) [Example 89, 5-[4-[(3-chlorophenyl)methoxy]phenyl]isothiazol-3-ol 1-oxide(A)]	< 300
[O-][s+]1nc(O)cc1-c1ccc(OCc2cccc(N3CCC(F)(F)CC3)c2)cc1 (single isomer, unassigned) [Example 93, 5-[4-[[3-(4,4-difluoropiperidin-1-yl)phenyl]methoxy]phenyl]isothiazol-3-ol 1-oxide(A)]	300 to 3000
[O-][s+]1nc(O)cc1-c1ccc(OCc2cccc3c2OCC3)cc1 (single isomer, unassigned) [Example 95, 5-[4-(2,3-dihydro-1-benzofuran-7-ylmethoxy)phenyl]isothiazol-3-ol 1-oxide(A)]	300 to 3000
Cc1cccc(C)c1-c1cccc2c1CC[C@H]2Oc1ccc(-c2cc(O)n[s+]2[O-])cc1 (single isomer, unassigned) [Example 107]	< 300
[O-][s+]1nc(O)cc1-c1ccc(O[C@@H]2CCc3c(C4CC4)cccc32)cc1 (single isomer, unassigned) [Example 109]	< 300
[O-][s+]1nc(O)cc1-c1ccc(O[C@@H]2CCc3c(-c4cccnc4)cccc32)cc1 (single isomer, unassigned) [Example 111]	< 300
[O-][s+]1nc(O)cc1-c1ccc(O[C@@H]2CCc3c(-c4cccnc4C(F)(F)F)cccc32)cc1 (single isomer, unassigned) [Example 117]	300 to 3000
[O-][s+]1nc(O)cc1-c1ccc(O[C@@H]2CCc3c(-c4ccc(N5CCCCC5)nc4)cccc32)cc1 (single isomer, unassigned) [Example 118]	< 300
CC1(C)CC=C(c2cccc3c2CC[C@H]3Oc2ccc(-c3cc(O)n[s+]3[O-])cc2)CC1 (single isomer, unassigned) [Example 120]	300 to 3000
Cc1nc(OCCC(C)(C)O)ccc1-c1cccc2c1CC[C@H]2Oc1ccc(-c2cc(O)n[s+]2[O-])cc1 (single isomer, unassigned) [Example 135]	< 300
Cc1cc(OCCCS(C)(=O)=O)cc(C)c1-c1cccc2c1CC[C@H]2Oc1ccc(-c2cc(O)n[s+]2[O-])cc1 (single isomer, unassigned) [Example 138]	< 300
CCOCCOc1cc(C)c(-c2cccc3c2CC[C@H]3Oc2ccc(-c3cc(O)n[s+]3[O-])cc2)c(C)c1 (single isomer, unassigned) [Example 139]	< 300
[O-][s+]1nc(O)cc1-c1ccc(OCc2cccc(Oc3ccccc3)c2)cc1 (stereo not drawn) [Example 2, 5-(4-((3-phenoxyphenyl)methoxy)phenyl)isothiazol-3-ol 1-oxide]	300 to 3000
[O-][s+]1nc(O)cc1-c1ccc(OC2CCc3cc(Cl)ccc32)cc1 (stereo not drawn) [Example 6, 5-(4-(5-chloro-2,3-dihydro-1H-inden-1-yloxy)phenyl)isothiazol-3-ol 1-oxide]	300 to 3000
Cc1cccc(C)c1-c1cccc(COc2ccc(-c3cc(O)n[s+]3[O-])cc2)c1 (stereo not drawn) [Example 8, 5-(4-((3-(2,6-dimethylphenyl)phenyl)methoxy)phenyl)isothiazol-3-ol 1-oxide]	< 300
Cc1cccc(C)c1-c1cccc(COc2ccc(C3=CC(O)=NS3(=O)=O)cc2)c1 [Example 9, 5-(4-((3-(2,6-dimethylphenyl)phenyl)methoxy)phenyl)isothiazol-3-ol 1,1-dioxide]	300 to 3000
Cc1cc(OCCC(C)(C)O)ncc1-c1cccc(COc2ccc(-c3cc(O)n[s+]3[O-])cc2)c1C (stereo not drawn) [Example 10, 5-(4-((3-(6-(3-hydroxy-3-methylbutoxy)-4-methylpyridin-3-yl)-2-methylphenyl)methoxy)phenyl)isothiazol-3-ol 1-oxide]	< 300
Cc1nc(OCCC(C)(C)O)ccc1-c1cccc(COc2ccc(-c3cc(O)n[s+]3[O-])cc2)c1C (stereo not drawn) [Example 11, 5-(4-((3-(6-(3-hydroxy-3-methylbutoxy)-2-methylpyridin-3-yl)-2-methylphenyl)methoxy)phenyl)isothiazol-3-ol 1-oxide]	< 300
Cc1cc(OCCC(C)(C)O)nc(C)c1-c1cccc(COc2ccc(-c3cc(O)n[s+]3[O-])cc2)c1C (stereo not drawn) [Example 12, 5-(4-((3-(2,4-dimethyl-6-(3-hydroxy-3-methylbutoxy)pyridin-3-yl)-2-methylphenyl)methoxy)phenyl)isothiazol-3-ol 1-oxide]	< 300
Cc1cc(OCCC(C)(C)O)cc(C)c1-c1cccc(COc2ccc(-c3cc(O)n[s+]3[O-])cc2)c1C (stereo not drawn) [Example 13, 5-(4-((3-(2,6-dimethyl-4-(3-hydroxy-3-methylbutoxy)phenyl)-2-methylphenyl)methoxy)phenyl)isothiazol-3-ol 1-oxide]	< 300
Cc1cc(OC2CCS(=O)(=O)CC2)cc(C)c1-c1cccc(COc2ccc(-c3cc(O)n[s+]3[O-])cc2)c1 (stereo not drawn) [Example 28, 5-(4-((3-(2,6-dimethyl-4-((1,1-dioxidetetrahydro-2H-thiopyran-4-yl)oxy)phenyl)phenyl)methoxy)phenyl)isothiazol-3-ol 1-oxide(A)]	< 300
Cc1cc(OC2CCS(=O)(=O)CC2)cc(C)c1-c1cccc(COc2ccc(-c3cc(O)n[s+]3[O-])cc2)c1C (stereo not drawn) [Example 29, 5-(4-((3-(2,6-dimethyl-4-((1,1-dioxidetetrahydro-2H-thiopyran-4-yl)oxy)phenyl)-2-methylphenyl)methoxy)phenyl)isothiazol-3-ol 1-oxide(A)]	< 300
Cc1cc(OCCC(C)(C)O)cc(C)c1-c1cccc(COc2ccc(-c3cc(O)n[s+]3[O-])cc2)c1C (stereo not drawn) [Example 31, 5-(4-((3-(2,6-dimethyl-4-(3-hydroxy-3-methylbutoxy)phenyl)-2-methylphenyl)methoxy)phenyl)isothiazol-3-ol 1-oxide(A)]	< 300
Cc1nc(OCCCN2CCCC2=O)nc(C)c1-c1cccc(COc2ccc(-c3cc(O)n[s+]3[O-])cc2)c1C (stereo not drawn) [Example 37, 5-(4-((3-(4,6-dimethyl-2-(3-(2-oxopyrrolidin-1-yl)propoxy)pyrimidin-5-yl)-2-methylphenyl)methoxy)phenyl)isothiazol-3-ol 1-oxide(A)]	300 to 3000
Cc1cc(OCC2(C)COC2)cc(C)c1-c1cccc(COc2ccc(-c3cc(O)n[s+]3[O-])cc2)c1C (stereo not drawn) [Example 42, 5-(4-((3-(2,6-dimethyl-4-((3-methyl-3-oxetanyl)methoxy)phenyl)-2-methylphenyl)methoxy)phenyl)isothiazol-3-ol 1-oxide(A)]	< 300

Further lines, results first:

EC50 [nM]	Compound
< 300	CCOCCOc1cc(C)c(-c2cccc(COc3ccc(-c4cc(O)n[s+]4[O-])cc3)c2)c(C)c1 (stereo not drawn) [Example 17, 5-(4-((3-(2,6-dimethyl-4-(2-ethoxyethoxy)phenyl)phenyl)methoxy)phenyl)isothiazol-3-ol 1-oxide(A)]
< 300	CCOCCOc1cc(C)c(-c2cccc(COc3ccc(-c4cc(O)n[s+]4[O-])cc3)c2)c(C)n1 (stereo not drawn) [Example 19, 5-(4-((3-(2,4-dimethyl-6-(2-ethoxyethoxy)pyridin-3-yl)phenyl)methoxy)phenyl)isothiazol-3-ol 1-oxide(A)]
< 300	CCOCCOc1cc(C)c(-c2cccc(COc3ccc(-c4cc(O)n[s+]4[O-])cc3)c2)c(C)c1F (stereo not drawn) [Example 22, 5-(4-((3-(2,6-dimethyl-4-(2-ethoxyethoxy)-3-fluorophenyl)phenyl)methoxy)phenyl)isothiazol-3-ol 1-oxide(A)]
< 300	Cc1cc(OCCCS(C)(=O)=O)cc(C)c1-c1cccc(COc2ccc(-c3cc(O)n[s+]3[O-])cc2)c1C (stereo not drawn) [Example 23, 5-(4-((3-(2,6-dimethyl-4-(3-(methylsulfonyl)propoxy)phenyl)-2-methylphenyl)methoxy)phenyl)isothiazol-3-ol 1-oxide(A)]
< 300	Cc1cc(OCCCS(C)(=O)=O)nc(C)c1-c1cccc(COc2ccc(-c3cc(O)n[s+]3[O-])cc2)c1 (stereo not drawn) [Example 24, 5-(4-((3-(2,4-dimethyl-6-(3-(methylsulfonyl)propoxy)pyridin-3-yl)phenyl)methoxy)phenyl)isothiazol-3-ol 1-oxide(A)]
< 300	Cc1cc(OCCCS(C)(=O)=O)c(F)c(C)c1-c1cccc(COc2ccc(-c3cc(O)n[s+]3[O-])cc2)c1 (stereo not drawn) [Example 27, 5-(4-((3-(2,6-dimethyl-3-fluoro-4-(3-(methylsulfonyl)propoxy)phenyl)phenyl)methoxy)phenyl)isothiazol-3-ol 1-oxide(A)]
< 300	Cc1cc(OCCCN2CCCC2=O)cc(C)c1-c1cccc(COc2ccc(-c3cc(O)n[s+]3[O-])cc2)c1 (stereo not drawn) [Example 33]
< 300	Cc1cc(OCCCN2CCCC2=O)nc(C)c1-c1cccc(COc2ccc(-c3cc(O)n[s+]3[O-])cc2)c1 (stereo not drawn) [Example 35, 5-(4-((3-(2,4-dimethyl-6-(3-(2-oxopyrrolidin-1-yl)propoxy)pyridin-3-yl)phenyl)methoxy)phenyl)isothiazol-3-ol 1-oxide(A)]
< 300	Cc1cc(OCC2(C)COC2)c(F)c(C)c1-c1cccc(COc2ccc(-c3cc(O)n[s+]3[O-])cc2)c1 (stereo not drawn) [Example 43]
< 300	Cc1cc(OCCCS(C)(=O)=O)cc(C)c1-c1cccc(COc2ccc(-c3cc(O)n[s+]3[O-])cc2)c1 (stereo not drawn) [Example 44, 5-(4-((3-(2,6-dimethyl-4-(3-(methylsulfonyl)propoxy)phenyl)phenyl)methoxy)phenyl)isothiazol-3-ol 1-oxide(A)]
< 300	Cc1cc(OCCCO)cc(C)c1-c1cccc(COc2ccc(-c3cc(O)n[s+]3[O-])cc2)c1 (stereo not drawn) [Example 47, 5-(4-((3-(2,6-dimethyl-4-(3-hydroxypropoxy)phenyl)phenyl)methoxy)phenyl)isothiazol-3-ol 1-oxide(A)]
